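Five concentrations, 48 hours, 96-well plates. GI50: concentration for 50% inhibition of growth. The concentration for full growth arrest is given as TGI.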

Test systems include UACC-257 melanoma; SR leukemia; EKVX NSCLC; OVCAR-8 ovarian; NCI/ADR-RES ovarian; OVCAR-5 ovarian; M14 melanoma; HS 578T breast; SW-620 colon; RXF 393 renal.
Common to all, as to test: NCI tumour cell line growth inhibition, 48 h

Turning to `Cc1cn(C2CC(OC(=O)c3ccc(Cl)cc3)C(COC(=O)c3ccc(Cl)cc3)O2)c(=O)[nH]c1=O` (stereo unspecified), the TGI in the assay with UACC-257 melanoma, in the assay on SR leukemia, in the assay on EKVX NSCLC, in the assay with OVCAR-8 ovarian, with NCI/ADR-RES ovarian and in the assay with OVCAR-5 ovarian was above 100 µM each time. The TGI with M14 melanoma, with HS 578T breast and in the assay with SW-620 colon was above 100 µM in each case.

As for `C=C(C)C1CC2(C)C(C)CC(O)CC2C(OC(=O)C=C(C)C)C1O` (stereo unspecified), the TGI was above 100 µM in the assay with UACC-257 melanoma; 51.9 µM with SR leukemia; above 100 µM in the assay with EKVX NSCLC; above 100 µM with OVCAR-8 ovarian; above 100 µM in the assay on RXF 393 renal; above 100 µM in the assay on NCI/ADR-RES ovarian. For the same compound, the TGI with OVCAR-5 ovarian, with M14 melanoma and in the assay on HS 578T breast was above 100 µM in each case.

`COc1ccc2c(c1)C(=O)CCc1cc(OC)c(OC)c(OC)c1-2`: the TGI was above 100 µM in the assay with UACC-257 melanoma, above 100 µM with M14 melanoma, 0.0576 µM in the assay on HS 578T breast and above 100 µM with SW-620 colon. Also, the GI50 with OVCAR-8 ovarian, in the assay on NCI/ADR-RES ovarian, with M14 melanoma and in the assay with SW-620 colon was below 0.01 µM in each case.

Turning to `CN(C)CCOc1ccc([N+](=O)[O-])c2cccnc12`, the TGI in the assay on UACC-257 melanoma, with SR leukemia, with OVCAR-8 ovarian, in the assay with NCI/ADR-RES ovarian, in the assay on OVCAR-5 ovarian and in the assay with M14 melanoma was above 100 µM throughout. Moreover, the TGI with HS 578T breast and in the assay on SW-620 colon was above 100 µM each time.

For `NC(CSC(c1ccccc1)(c1ccccc1)c1ccccc1)C(=O)NCC(=O)O` (stereo unspecified), the GI50 in the assay with UACC-257 melanoma is 5.19 µM; with SR leukemia, 3.48 µM; in the assay on OVCAR-8 ovarian, 5.35 µM; in the assay with RXF 393 renal, 2.84 µM; with NCI/ADR-RES ovarian it was 26.5 µM; in the assay with OVCAR-5 ovarian it was 22.5 µM. Further, the GI50 in the assay on M14 melanoma was 3.73 µM; in the assay with HS 578T breast it was 3.29 µM; in the assay with SW-620 colon, 3.59 µM. Besides, the TGI in the assay on UACC-257 melanoma is above 100 µM; in the assay with SR leukemia, 38.2 µM; in the assay with OVCAR-8 ovarian it was above 100 µM; in the assay on RXF 393 renal, 19.5 µM; with NCI/ADR-RES ovarian, above 100 µM; in the assay on OVCAR-5 ovarian it was above 100 µM. Further, the results for the TGI in the assay with M14 melanoma, with HS 578T breast and with SW-620 colon were 23.2 µM, 25.1 µM and above 100 µM, respectively.

With `O=NNc1ccc2ccccc2n1`, the TGI with UACC-257 melanoma, in the assay on SR leukemia, with EKVX NSCLC, with OVCAR-8 ovarian, in the assay on NCI/ADR-RES ovarian and in the assay on OVCAR-5 ovarian was above 100 µM throughout. Also, the TGI in the assay with M14 melanoma, in the assay on HS 578T breast and in the assay on SW-620 colon was above 100 µM throughout.

Turning to `CCN1C(=O)c2ccc3c4c(ccc(c24)C1=O)C(=O)N(CCCNCc1ccccc1OC)C3=O`, the GI50 in the assay with UACC-257 melanoma was 0.264 µM; with SR leukemia it was 0.466 µM; in the assay on OVCAR-8 ovarian, 0.438 µM; in the assay with RXF 393 renal, 0.671 µM; with NCI/ADR-RES ovarian, 1.04 µM; in the assay on OVCAR-5 ovarian, 1.35 µM. Also, the GI50 is 0.69 µM with M14 melanoma, 2.21 µM in the assay on HS 578T breast and 0.362 µM with SW-620 colon. The TGI was determined as 0.88 µM in the assay with UACC-257 melanoma; 6.3 µM in the assay on SR leukemia; 2.87 µM in the assay on OVCAR-8 ovarian; 2.04 µM in the assay on RXF 393 renal; 5.96 µM in the assay on NCI/ADR-RES ovarian; 3.74 µM in the assay on OVCAR-5 ovarian. The results for the TGI in the assay on M14 melanoma, in the assay with HS 578T breast and in the assay with SW-620 colon were 2.1 µM, 8.35 µM and 1.77 µM, respectively.

Take `CC(C)CNc1nc(-c2ccccc2Cl)nc2ccccc12`: the GI50 with SR leukemia is 19.7 µM; in the assay with OVCAR-8 ovarian it was 17.2 µM; in the assay with RXF 393 renal, 15.1 µM; in the assay with NCI/ADR-RES ovarian, 17.8 µM; in the assay on OVCAR-5 ovarian, 18.6 µM; in the assay with M14 melanoma it was 19.5 µM. Further, in the assay with HS 578T breast, the GI50 is 18 µM. Moreover, the TGI in the assay on SR leukemia was 44.9 µM; in the assay on OVCAR-8 ovarian, 38.9 µM; in the assay on RXF 393 renal, 31.2 µM; in the assay with NCI/ADR-RES ovarian, 42.6 µM; in the assay on OVCAR-5 ovarian, 35.2 µM; in the assay on M14 melanoma, 35.1 µM. The TGI with HS 578T breast came out at 37.3 µM.

On to `CCN(CC)CCNC(Cc1ccccc1)c1ccc(OCc2ccccc2)cc1` (stereo unspecified), for which the GI50 was 2.13 µM with UACC-257 melanoma; 2.35 µM in the assay on SR leukemia; 10.7 µM in the assay on OVCAR-8 ovarian; 3.83 µM with RXF 393 renal; 9.87 µM with NCI/ADR-RES ovarian; 7.02 µM in the assay with OVCAR-5 ovarian. The GI50 in the assay on M14 melanoma was 2.07 µM; in the assay on HS 578T breast, 4.32 µM; with SW-620 colon, 5.53 µM. The TGI in the assay with UACC-257 melanoma came to 4.85 µM; with SR leukemia, 6.74 µM; in the assay with OVCAR-8 ovarian, 24.4 µM; in the assay on RXF 393 renal, 18.1 µM; with NCI/ADR-RES ovarian it was 23.2 µM; with OVCAR-5 ovarian it was 22.4 µM. The TGI with M14 melanoma was determined as 5.09 µM; in the assay on HS 578T breast, 23.8 µM; in the assay on SW-620 colon it was 20 µM.

Turning to `C=C1c2c(C)nn(-c3ccc(C#CCOC4OC(CO)C(O)C(O)C4O)cc3)c2N(C)C23C[C@H]1C1(C)c4c(C)nn(-c5ccc(C#CCOC6OC(CO)C(O)C(O)C6O)cc5)c4N(C)C(C)(C[C@H]12)C3` (stereo partly specified), the GI50 is 1.82 µM in the assay on UACC-257 melanoma; 3.28 µM in the assay on SR leukemia; 1 µM in the assay with OVCAR-8 ovarian; 1.62 µM with RXF 393 renal; 5.43 µM in the assay with NCI/ADR-RES ovarian; 1.78 µM in the assay with OVCAR-5 ovarian. In addition, the GI50 was 1.67 µM in the assay with M14 melanoma, 0.472 µM in the assay on HS 578T breast and 1.72 µM in the assay on SW-620 colon. For the same compound, the TGI with UACC-257 melanoma is 4.56 µM; in the assay with SR leukemia it was above 100 µM; with OVCAR-8 ovarian, 3.84 µM; in the assay on RXF 393 renal, 3.52 µM; in the assay on NCI/ADR-RES ovarian, 47 µM; with OVCAR-5 ovarian it was 3.54 µM. Further, the TGI with M14 melanoma was 3.44 µM; in the assay on HS 578T breast, 9.85 µM; with SW-620 colon, 3.77 µM.

Regarding `CCCCCCCCn1ccc2cc(NC(=O)Cn3cc(CN4CCCCCC4)nn3)ccc21`, the GI50 is 1.91 µM in the assay on UACC-257 melanoma; 1.68 µM in the assay with EKVX NSCLC; 1.87 µM with OVCAR-8 ovarian; 1.66 µM in the assay on RXF 393 renal; 1.79 µM with NCI/ADR-RES ovarian; 1.82 µM in the assay with OVCAR-5 ovarian. For the same compound, the values for the GI50 in the assay on M14 melanoma, in the assay with HS 578T breast and in the assay on SW-620 colon were 1.67 µM, 1.91 µM and 1.73 µM, respectively. For the same compound, the TGI is 3.58 µM in the assay on UACC-257 melanoma; 3.43 µM in the assay on EKVX NSCLC; 3.73 µM with OVCAR-8 ovarian; 3.24 µM with RXF 393 renal; 3.56 µM with NCI/ADR-RES ovarian; 3.86 µM in the assay with OVCAR-5 ovarian. The TGI was 3.23 µM in the assay with M14 melanoma, 4.16 µM with HS 578T breast and 3.33 µM in the assay on SW-620 colon.

For `O=C(O)CCCc1ccc2ccc3ccccc3c2c1`, the TGI in the assay with UACC-257 melanoma, with SR leukemia, in the assay with EKVX NSCLC, in the assay with OVCAR-8 ovarian, in the assay with RXF 393 renal and in the assay with NCI/ADR-RES ovarian was above 100 µM each time. Further, the TGI in the assay with OVCAR-5 ovarian, with M14 melanoma and in the assay on HS 578T breast was above 100 µM throughout.

In the case of `CN(C)C/C=C/C(=O)Nc1ccc(C(=O)N[C@@]2(C)CCC[C@@H](Nc3ncc(Cl)c(-c4c[nH]c5ccccc45)n3)C2)nc1`, the GI50 in the assay with UACC-257 melanoma was below 0.01 µM; in the assay with SR leukemia, below 0.01 µM; in the assay on EKVX NSCLC it was below 0.01 µM; in the assay on OVCAR-8 ovarian, 0.0154 µM; in the assay on RXF 393 renal, 0.0144 µM; in the assay on OVCAR-5 ovarian, 0.0213 µM. Besides, the GI50 in the assay with M14 melanoma was below 0.01 µM; in the assay with HS 578T breast, 0.022 µM; in the assay on SW-620 colon, below 0.0106 µM. The TGI was 0.121 µM with UACC-257 melanoma; 1.09 µM with SR leukemia; 0.564 µM in the assay on EKVX NSCLC; 1.19 µM in the assay on OVCAR-8 ovarian; 0.0344 µM with RXF 393 renal; 1.24 µM in the assay with OVCAR-5 ovarian. In addition, the values for the TGI in the assay with M14 melanoma, with HS 578T breast and with SW-620 colon were 0.0282 µM, 0.0877 µM and 0.36 µM, respectively.

Regarding `C#CC1(O)C(COP(=O)(O)OCC(COP(=O)(O)OCC2OC(n3cc(F)c(=O)[nH]c3=O)CC2O)OCCCCCCCCCCCCCCCCCC)OC(n2ccc(N)nc2=O)C1O` (stereo unspecified), the GI50 in the assay on UACC-257 melanoma was 0.448 µM; with EKVX NSCLC, 0.618 µM; in the assay with OVCAR-8 ovarian, 0.169 µM; in the assay with RXF 393 renal, 0.393 µM; in the assay on NCI/ADR-RES ovarian, 0.147 µM; in the assay on OVCAR-5 ovarian, 5.36 µM. For the same compound, the GI50 with M14 melanoma is 0.215 µM; with HS 578T breast, 2.16 µM; in the assay with SW-620 colon, 0.0269 µM. Moreover, the TGI is above 31.6 µM in the assay with UACC-257 melanoma; 25.8 µM with EKVX NSCLC; above 36.5 µM in the assay with OVCAR-8 ovarian; 6.33 µM with RXF 393 renal; above 40.4 µM in the assay on NCI/ADR-RES ovarian; above 52.6 µM in the assay on OVCAR-5 ovarian. In addition, the TGI in the assay with M14 melanoma was 6.45 µM; in the assay on HS 578T breast, above 52.8 µM; in the assay on SW-620 colon, above 100 µM.

Turning to `CC(C)C(O)(C(C)C)C(C)C`, the TGI with UACC-257 melanoma, with SR leukemia, with EKVX NSCLC, with OVCAR-8 ovarian, in the assay with RXF 393 renal and in the assay with NCI/ADR-RES ovarian was above 100 µM in each case. For the same compound, the TGI with OVCAR-5 ovarian, with M14 melanoma and with HS 578T breast was above 100 µM in each case.
